26 molecules from US20090239845A1, “PYRAZOLE COMPOUNDS AS PROSTAGLANDIN RECEPTORS LIGANDS” (priority 2005, published 2009) can be followed below.

Each structure is given as a SMILES string. Counter-ions that a name gives are not always drawn. Some results are limits rather than exact numbers.

The target in this experiment is T1, human EP1 receptor (Homo sapiens, UniProt P34995).
T1 construct: expressed in transfected cells; host or cells: CHO-K1
T1 sequence (P34995 1-402): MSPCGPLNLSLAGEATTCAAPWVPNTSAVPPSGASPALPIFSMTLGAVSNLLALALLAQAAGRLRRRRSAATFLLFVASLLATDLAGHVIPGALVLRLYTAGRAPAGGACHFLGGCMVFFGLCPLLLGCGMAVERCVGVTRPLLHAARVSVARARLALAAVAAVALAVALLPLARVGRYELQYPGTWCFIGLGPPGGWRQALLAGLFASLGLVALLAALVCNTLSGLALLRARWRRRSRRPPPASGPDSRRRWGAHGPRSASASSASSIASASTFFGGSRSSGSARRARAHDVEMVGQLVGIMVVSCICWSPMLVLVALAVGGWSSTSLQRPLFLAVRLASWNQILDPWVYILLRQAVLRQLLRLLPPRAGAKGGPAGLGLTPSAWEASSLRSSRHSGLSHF
Description: human EP1 calcium mobilisation assay. It counts as cell-based. As to conditions: negative logarithm10 of the antagonist dissociation constant; CHO-K1 cells, PGE2; free bases or sodium salts; averages of a number of experiments; read-out: functional pKi value (converted). How it is done:
Briefly, the antagonist properties of compounds are assessed by their ability to inhibit the mobilisation of intracellular calcium ([Ca^2+]i) in response to activation of EP1 or EP3 receptors by the natural agonist hormone prostaglandin E2 (PGE2). Increasing concentrations of antagonist reduce the amount of calcium that a given concentration of PGE2 can mobilise. The net effect is to displace the PGE2 concentration-effect curve to higher concentrations of PGE2. The amount of calcium produced is assessed using a calcium-sensitive fluorescent dye such as Fluo-4, AM and a suitable instrument such as a Fluorimetric Imaging Plate Reader (FLIPR). Increasing amounts of [Ca^2+]i produced by receptor activation increase the amount of fluorescence produced by the dye and give rise to an increasing signal. The signal may be detected using the FLIPR instrument and the data generated may be analysed with suitable curve-fitting software.
The human EP1 or EP3 calcium mobilisation assay (hereafter referred to as ‘the calcium assay’) utilises Chinese hamster ovary-K1 (CHO-K1) cells into which a stable (pCIN; BioTechniques 20 (1996): 102-110) vector containing either EP1 or EP3 cDNA has previously been transfected. Cells are cultured in suitable flasks containing culture medium such as DMEM:F-12 supplemented with 10% v/v foetal calf serum, 2 mM L-glutamine, 0.25 mg/ml geneticin, 100 μM flurbiprofen and 10 μg/ml puromycin.
For assay, cells are harvested using a proprietary reagent that dislodges cells such as Versene. Cells are re-suspended in a suitable quantity of fresh culture media for introduction into a 384-well plate. Following incubation for 24 hours at 37° C. the culture media is replaced with a medium containing Fluo-4 and the detergent pluronic acid, and a further incubation takes place. Concentrations of compounds are then added to the plate in order to construct concentration-effect curves. This may be performed on the FLIPR in order to assess the agonist properties of the compounds. Concentrations of PGE2 are then added to the plate in order to assess the antagonist properties of the compounds.
The data so generated may be analysed by means of a computerised curve-fitting routine. The concentration of compound that elicits a half-maximal inhibition of the calcium mobilisation induced by PGE2 (plC50) may then be estimated.
A general note: Calcium assays in cells follow changes in intracellular calcium, usually with a dye or a luminescent sensor.
Regarding `Cc1cc(N2CCN(CC3CCCCC3)CC2=O)nn1Cc1cc(Cl)ccc1OCc1ccccc1` [Example 249, 1-[1-({5-Chloro-2-[(phenylmethyl)oxy]phenyl}methyl)-5-methyl-1H-pyrazol-3-yl]-4-(cyclohexylmethyl)-2-piperazinone hydrochloride], the Ki was more than 1000 nM.

Consider `Cc1cc(C(=O)NC(C)C)nn1Cc1cc(Cl)ccc1OCc1ccccc1` [Example 290, 1-({5-Chloro-2-[(phenylmethyl)oxy]phenyl}methyl)-5-methyl-N-(1-methylethyl)-1H-pyrazole-3-carboxamide], for which the Ki is more than 1000 nM.

For the molecule `Cc1cc(NC(=O)Cc2ccccc2)nn1Cc1cc(Cl)ccc1OCc1ccc(F)c(F)c1F` [Example 123, N-{1-[(5-Chloro-2-{[(2,3,4-trifluorophenyl)methyl]oxy}phenyl)methyl]-5-methyl-1H-pyrazol-3-yl}-2-phenylacetamide], the Ki is more than 1000 nM.

In the case of `Cc1cc(-c2nc3cc(F)c(F)cc3[nH]2)nn1Cc1cc(Cl)ccc1OCC(C)C` [Example 376, 2-[1-({5-Chloro-2-[(2-methylpropyl)oxy]phenyl}methyl)-5-methyl-1H-pyrazol-3-yl]-5,6-difluoro-1H-benzimidazole], the Ki was more than 1000 nM.

In the case of `CCOC(=O)Nc1cc(C)n(Cc2cc(Cl)ccc2OCc2ccccc2)n1` [Example 66, Ethyl [1-({5-chloro-2-[(phenylmethyl)oxy]phenyl}methyl)-5-methyl-1H-pyrazol-3-yl]carbamate], the Ki is more than 1000 nM. For `Cc1cc(NC(=O)Cc2ccccc2)nn1Cc1cc(Cl)ccc1OCc1ccc(F)c(F)c1` [Example 128, N-{1-[(5-Chloro-2-{[(3,4-difluorophenyl)methyl]oxy}phenyl)methyl]-5-methyl-1H-pyrazol-3-yl}-2-phenylacetamide] the value was more than 1000 nM; for `Cc1cc(-c2nc3nccnc3[nH]2)nn1Cc1cc(Cl)ccc1OCc1ccccc1` [Example 368, 2-[1-({5-Chloro-2-[(phenylmethyl)oxy]phenyl}methyl)-5-methyl-1H-pyrazol-3-yl]-1H-imidazo[4,5-b]pyrazine hydrochloride], more than 1000 nM; for `Cc1cc(NC(=O)c2ccc(CNCC(C)C)c(F)c2)nn1Cc1cc(Cl)ccc1OCC(C)C` [Example 438, N-[1-({5-chloro-2-[(2-methylpropyl)oxy]phenyl}methyl)-5-methyl-1H-pyrazol-3-yl]-3-fluoro-4-{[(2-methylpropyl)amino]methyl}benzamide hydrochloride], more than 1000 nM.

On to `Cc1cc(C(=O)Nc2ccccc2)nn1Cc1cc(Cl)ccc1OCc1ccccc1` [Example 291, 1-({5-Chloro-2-[(phenylmethyl)oxy]phenyl}methyl)-5-methyl-N-phenyl-1H-pyrazol-3-carboxamide], for which the Ki is more than 1000 nM. For `Cc1cc(OC(=O)NCc2cccc(NC(=O)OC(C)(C)C)c2)nn1Cc1cc(Cl)ccc1OCc1ccccc1` [Example 60, 1-({5-Chloro-2-[(phenylmethyl)oxy]phenyl}methyl)-5-methyl-1H-pyrazol-3-yl {[3-({[(1,1-dimethylethyl)oxy]carbonyl}amino)phenyl]methyl}carbamate] the value was more than 1000 nM. To `Cc1cc(NC(=O)Cc2ccncc2)nn1Cc1cc(Cl)ccc1OCc1ccccc1` [Example 149, N-[1-({5-Chloro-2-[(phenylmethyl)oxy]phenyl}methyl)-5-methyl-1H-pyrazol-3-yl]-2-(4-pyridinyl)-acetamide] belongs more than 1000 nM.

`Cc1cc(NC(=O)Cc2ccccc2)nn1Cc1cc(Cl)ccc1OCc1ccccc1F` [Example 120, N-{1-[(5-Chloro-2-{[(2-fluorophenyl)methyl]oxy}phenyl)methyl]-5-methyl-1H-pyrazol-3-yl}-2-phenylacetamide]: the Ki was more than 1000 nM. Regarding `Cc1cc(C(=O)NCc2ccccn2)nn1Cc1cc(Cl)ccc1OCc1cc(F)c(F)cc1F` [Example 338, 1-[(5-Chloro-2-{[(2,4,5-trifluorophenyl)methyl]oxy}phe-nyl)methyl]-5-methyl-N-(2-pyridinylmethyl)-1H-pyrazole-3-carboxamide], the Ki was more than 1000 nM. To `Cc1cc(NC(=O)c2cccnc2)nn1Cc1cc(Cl)ccc1OCc1ccccc1` [Example 145, N-[1-({5-Chloro-2-[(phenylmethyl)oxy]phenyl}methyl)-5-methyl-1H-pyrazol-3-yl]-3-pyridinecarboxamide] belongs more than 1000 nM; to `CCN(CC)Cc1ccc(C(=O)Nc2cc(C)n(Cc3cc(Cl)ccc3OCC(C)C)n2)cc1F` [Example 435, N-[1-({5-chloro-2-[(2-methylpropyl)oxy]phenyl}methyl)-5-methyl-1H-pyrazol-3-yl]-4-[(diethylamino)methyl]-3-fluorobenzamide hydrochloride], more than 1000 nM. To `Cc1cc(OC(=O)NCc2cccc(CNC(=O)OC(C)(C)C)c2)nn1Cc1cc(Cl)ccc1OCc1ccccc1` [Example 61, 1-({5-Chloro-2-[(phenylmethyl)oxy]phenyl}methyl)-5-methyl-1H-pyrazol-3-yl 1,1-dimethylethyl (benzene-1,3-diyldimethanediyl)biscarbamate] belongs more than 1000 nM; to `Cc1cc(NC(=O)c2ccc3c(c2)CCNCC3)nn1Cc1cc(Cl)ccc1OCC(C)C` [Example 98, N-[1-({5-Chloro-2-[(2-methylpropyl)oxy]phenyl}methyl)-5-methyl-1H-pyrazol-3-yl]-2,3,4,5-tetrahydro-1H-3-benzazepine-7-carboxamide hydrochloride], more than 1000 nM. Consider `CC(=O)Nc1cc(C)n(Cc2cc(Cl)ccc2OCc2ccccc2)n1` [Example 104, N-[1-({5-Chloro-2-[(phenylmethyl)oxy]phenyl}methyl)-5-methyl-1H-pyrazol-3-yl]acetamide], for which the Ki was more than 1000 nM. As to `Cc1cc(S(=O)(=O)NC(=O)c2ccccc2)nn1Cc1cc(Cl)ccc1OCc1ccccc1` [Example 359, N-{[1-({5-Chloro-2-[(phenylmethyl)oxy]phenyl}methyl)-5-methyl-1H-pyrazol-3-yl]sulfonyl}benzamide], the Ki was more than 1000 nM.

On to `Cc1cc(OC(=O)NCc2ccc(NC(=O)OC(C)(C)C)cc2)nn1Cc1cc(Cl)ccc1OCc1ccccc1` [Example 56, 1-({5-Chloro-2-[(phenylmethyl)oxy]phenyl}methyl)-5-methyl-1H-pyrazol-3-yl {[4-({[(1,1-dimethylethyl)oxy]carbonyl}amino)phenyl]methyl}carbamate], for which the Ki was more than 1000 nM. To `Cc1cc(C(=O)Nc2ccc(C#N)cc2)nn1Cc1cc(Cl)ccc1OCc1ccccc1` [Example 306, 1-({5-Chloro-2-[(phenylmethyl)oxy]phenyl}methyl)-N-(4-cyanophenyl)-5-methyl-1H-pyrazole-3-carboxamide] belongs more than 1000 nM; to `CNCc1ccc(NC(=O)c2cc(C)n(Cc3cc(Cl)ccc3OCC(C)C)n2)c(OC)c1` [Example 412, 1-({5-Chloro-2-[(2-methylpropyl)oxy]phenyl}methyl)-5-methyl-N-[4-[(methylamino)methyl]-2-(methyloxy)phenyl]-1H-pyrazole-3-carboxamide hydrochloride], more than 1000 nM. For `Cc1cc(C(=O)Nc2ccccc2C#N)nn1Cc1cc(Cl)ccc1OCc1ccccc1` [Example 304, 1-({5-Chloro-2-[(phenylmethyl)oxy]phenyl}methyl)-N-(2-cyanophenyl)-5-methyl-1H-pyrazole-3-carboxamide] the value was more than 1000 nM; for `Cc1cc(NC(=O)Cc2ccccc2)nn1Cc1cc(Cl)ccc1OCc1ccc(F)cc1Cl` [Example 124, N-{1-[(5-Chloro-2-{[(2-chloro-4-fluorophenyl)methyl]oxy}phenyl)methyl]-5-methyl-1H-pyrazol-3-yl}-2-phenylacetamide], more than 1000 nM; for `CC(=O)Nc1cc(C)n(Cc2cc(Cl)ccc2OCC(C)C)n1` [Example 103, N-[1-({5-Chloro-2-[(2-methylpropyl)oxy]phenyl}methyl)-5-methyl-1H-pyrazol-3-yl]acetamide], more than 1000 nM. To `Cc1cc(C(=O)Nc2ccccc2Cl)nn1Cc1cc(Cl)ccc1OCc1ccccc1` [Example 300, N-(2-Chlorophenyl)-1-({5-chloro-2-[(phenylmethyl)oxy]phenyl}methyl)-5-methyl-1H-pyrazole-3-carboxamide] belongs more than 1000 nM.
